According to publication PMC4923880, “Urbilaterian origin of paralogous GnRH and corazonin neuropeptide signalling pathways” (Scientific Reports, 2016):
Square brackets hold non-standard residues; d marks the D form. Ends that are not written are not given here. Peptide text beside a SMILES is read from it. pGlu = O=C1CC[C@@H](C(=O)O)N1

What was measured:
[1] = biological target: ArGnRHR (Asterias rubens, UniProt A0A1B0YGS0); experiment: Bioluminescence (Ca2+) receptor activation assay, ArGnRHR in CHO-K1 cells with aequorin and Gα16; assay type: cell-based; settings: for activation of ArGnRHR by other GnRH/CRZ-type or starfish neuropeptides (in words) / activation of ArGnRHR (bioluminescence response, in words): CHO-K1/aequorin/Gα16 cells; for activation of ArGnRHR by other GnRH/CRZ-type or starfish neuropeptides (in words): 10 μM, Supplementary Figure S8; for activation of ArGnRHR (bioluminescence response, in words): concentrations 10^−4 M to 10^−14 M, peptide 2 over the same concentration range as peptide 1
Sequence of ArGnRHR (A0A1B0YGS0 entry or part of it): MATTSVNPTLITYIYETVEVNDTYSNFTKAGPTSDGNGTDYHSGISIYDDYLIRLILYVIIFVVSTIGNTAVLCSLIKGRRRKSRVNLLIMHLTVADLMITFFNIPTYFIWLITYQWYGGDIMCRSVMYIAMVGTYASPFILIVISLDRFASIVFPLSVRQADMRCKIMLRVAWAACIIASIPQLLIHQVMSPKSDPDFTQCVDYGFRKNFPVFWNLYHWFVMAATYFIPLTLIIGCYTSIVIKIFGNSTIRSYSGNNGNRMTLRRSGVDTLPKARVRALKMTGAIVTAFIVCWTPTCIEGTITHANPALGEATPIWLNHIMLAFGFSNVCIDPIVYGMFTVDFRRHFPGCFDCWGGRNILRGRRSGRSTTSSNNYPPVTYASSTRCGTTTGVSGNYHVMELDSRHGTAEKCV
Source text: (§1) ArGnRHR and ArCRZR were cloned as described previously[23] and the positions of the primers used are indicated in Supplementary Figures S1 and S2. Next, the ORF of ArGnRHR was amplified using the oligos 5′-aagcttCACCATGGCGACTACATC-3′ and 5′-ctcgagTTATACACATTTCTCAG-3′ and subcloned into the eukaryotic expression vector pcDNA 3.1+ (Invitrogen) that was cut with HindIII and XhoI; The ORF of ArCRZR was amplified using the oligos 5′- gatatcCACCATGAGTGTTCAAT-3′ and 5′-tctagaTCAGGTTGTTGTTGTGA-3′ and subcloned into pcDNA 3.1+ that was cut with EcoRV and XbaI. A partial Kozak translation initiation sequence (CACC) was also introduced in the upstream primer. Chinese hamster ovary (CHO)-K1 cells stably overexpressing the human Gα16 protein and mitochondrial targeted apo-aequorin were used as a heterologous expression system to functionally characterize the receptors. Cells were cultured, transfected and a bioluminescence assay performed as described previously. The A. rubens neuropeptides pQIHYKNPGWGPG-NH2 and HNTFTMGGQNRWKAG-NH2 were custom synthesized by PPR Ltd (Fareham, UK) and were tested as candidate ligands for ArGnRHR and ArCRZR at concentrations ranging from 10^−4 M to 10^−14 M. Ca^2+ responses were normalized to the total Ca^2+ response monitored after addition of Triton X-100 (0.1%). Dose–response data were determined as a % of the highest response (100% activation). EC50 values were calculated from dose–response curves based on at least three independent transfections (Prism 6.0). Other GnRH/CRZ-type neuropeptides (Drosophila AKH and Drosophila AKH) and other starfish neuropeptides (NGFFYamide, SALMFamide-1 and SALMFamide-2[16][24]) were also tested (at 10 μM) to assess the specificity of receptor activation.

[2] = biological target: ArCRZR (Asterias rubens, UniProt A0A1B0YGT7); experiment: Bioluminescence (Ca2+) receptor activation assay, ArCRZR in CHO-K1 cells with aequorin and Gα16; assay type: cell-based; settings: for activation of ArCRZR by other GnRH/CRZ-type or starfish neuropeptides (in words): 10 μM, Supplementary Figure S8
Sequence of ArCRZR (A0A1B0YGT7 entry or part of it): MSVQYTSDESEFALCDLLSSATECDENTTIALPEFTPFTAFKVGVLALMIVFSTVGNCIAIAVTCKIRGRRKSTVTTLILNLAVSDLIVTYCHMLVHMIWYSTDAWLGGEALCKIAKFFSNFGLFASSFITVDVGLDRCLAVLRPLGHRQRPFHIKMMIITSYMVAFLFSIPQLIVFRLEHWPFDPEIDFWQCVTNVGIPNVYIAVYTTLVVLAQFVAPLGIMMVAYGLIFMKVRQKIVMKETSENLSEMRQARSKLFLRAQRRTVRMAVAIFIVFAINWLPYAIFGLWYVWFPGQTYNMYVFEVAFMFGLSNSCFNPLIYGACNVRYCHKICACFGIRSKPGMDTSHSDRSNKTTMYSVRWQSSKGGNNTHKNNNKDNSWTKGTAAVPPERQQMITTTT
Source text: as §1

[3] = tested on: CRZ-type receptor; settings: one of two CRZ-type receptors; ref [14]; cited from earlier work
Source text: (§2) It is not known, however, if this predicted mature peptide actually exists in B. floridae. […] Thus, it remains to be established whether or not distinct GnRH-type and CRZ-type signalling pa ...

[4] = tested on: GnRH-type receptors; settings: two GnRH-type receptors; ref [14]; cited from earlier work
Source text: as §2

[5] = tested on: cells transfected with an empty vector; experiment: Bioluminescence assay, cells transfected with an empty vector (control); assay type: cell-based, Chinese hamster; settings: data not shown
Source text: as §1, with “Chinese hamster ovary (CHO)-K1 cells stably overexpressing the human Gα16 protein and mitochondrial targeted apo-aequorin were used as a heterologous expression system to functionally characterize the receptors. Cells were cultured, transfected and a bioluminescence assay performed as described previously.” left out, “Other GnRH/CRZ-type neuropeptides (Drosophila AKH and Drosophila AKH) and other starfish neuropeptides (NGFFYamide, SALMFamide-1 and SALMFamide-2[16][24]) were also tested (at 10 μM) to assess the specificity of receptor activation.” left out

In the case of NGFFYamide, the “activation of ArGnRHR by other GnRH/CRZ-type or starfish neuropeptides (in words)” value [1] is reported as “Neither receptor was activated” and the “activation of ArCRZR by other GnRH/CRZ-type or starfish neuropeptides (in words)” value ([2]; CHO-K1/aequorin/Gα16 cells) is reported as “Neither receptor was activated”.

Compound `CSCC[C@H](NC(=O)[C@@H](NC(=O)[C@H](Cc1ccccc1)NC(=O)[C@@H](NC(=O)[C@H](CC(N)=O)NC(=O)[C@@H](N)Cc1c[nH]cn1)[C@@H](C)O)[C@@H](C)O)C(=O)NCC(=O)NCC(=O)N[C@@H](CCC(N)=O)C(=O)N[C@@H](CC(N)=O)C(=O)N[C@@H](CCCNC(=N)N)C(=O)N[C@@H](Cc1c[nH]c2ccccc12)C(=O)N[C@@H](CCCCN)C(=O)N[C@@H](C)C(=O)NCC(N)=O` [peptide 2] (H-HNTFTMGGQNRWKAG-NH2) has an EC50 [2] of 115 nM.

For “Drosophila AKH: other GnRH/CRZ-type peptide (Drosophila adipokinetic hormone) (QLTFSPDW; ends and bridges not checked; UniProt P61855 23-30, looked up)”, the “activation of ArGnRHR by other GnRH/CRZ-type or starfish neuropeptides (in words)” value [1] was “Neither receptor was activated” and the “activation of ArCRZR by other GnRH/CRZ-type or starfish neuropeptides (in words)” value ([2]; CHO-K1/aequorin/Gα16 cells) was “Neither receptor was activated”.

For “CRZ: other GnRH/CRZ-type peptide (Drosophila corazonin) (QTFQYSRGWTN; ends and bridges not checked; UniProt Q26377 20-30, looked up)”, the “activation of ArGnRHR by other GnRH/CRZ-type or starfish neuropeptides (in words)” value [1] was “Neither receptor was activated” and the “activation of ArCRZR by other GnRH/CRZ-type or starfish neuropeptides (in words)” value ([2]; CHO-K1/aequorin/Gα16 cells) was “Neither receptor was activated”.

In the case of “pQILCARAFTYTHTW-NH2 [candidate neuropeptide in the cephalochordate Branchiostoma floridae]”, the “activation of B. floridae CRZ-type receptors (in words)” value [3] is given as “activates one of two CRZ-type receptors” and the “activation of B. floridae GnRH-type receptors (in words)” value [4] is given as “neither of two GnRH-type receptors”.

For `CC[C@H](C)[C@H](NC(=O)[C@@H]1CCC(=O)N1)C(=O)N[C@@H](Cc1c[nH]cn1)C(=O)N[C@@H](Cc1ccc(O)cc1)C(=O)N[C@@H](CCCCN)C(=O)N[C@@H](CC(N)=O)C(=O)N1CCC[C@H]1C(=O)NCC(=O)N[C@@H](Cc1c[nH]c2ccccc12)C(=O)NCC(=O)N1CCC[C@H]1C(=O)NCC(N)=O` [peptide 1] ([pGlu]IHYKNPGWGPG-NH2), the EC50 [1] was 0.603 nM, the “activation of ArGnRHR (bioluminescence response, in words)” value [1] was “dose-dependent activation” and the “activation of ArGnRHR (bioluminescence response, in words)” value ([1]; listed as Peptide 1) was “dose-dependent stimulation of a bioluminescence response”. For the same compound, the “activation of ArGnRHR (bioluminescence response, in words)” value ([1]; listed as pQIHYKNPGWGPG-NH2) was “specifically activates an A. rubens GnRH-type receptor”, the “activation of ArCRZR (bioluminescence response, in words)” value ([2]; CHO-K1/aequorin/Gα16 cells, concentrations 10^−4 M to 10^−14 M, peptide 1 over a similar concentration range as peptide 2) was “no effect” and the “response of cells transfected with an empty vector (in words)” value [5] was “Neither peptide 1 nor peptide 2 elicited any response”.
